Drawing on patent US8703165B2, “Spiro fused 1-amino-piperdine pyrrolidine dione derivatives with pesticidal activity” (Syngenta Crop Protection, Inc., priority 2009, dated 2014), this text covers melting point for one compound.

Each structure is given as a SMILES string.

Usually melting point stands for the temperature of the solid-liquid transition. As for `Cc1cc(C)c(C2C(=O)OC3(CCN(N(C)C)CC3)C2=O)c(C)c1` (stereo not shown) [A11, 8-Dimethylamino-3-(2,4,6-trimethyl-phenyl)-1-oxa-8-azaspiro[4.5]decane-2,4-dione], the melting point is > 200 °C.
